According to patent publication US20260098061A1, “EPHA2-BINDING PENDING PEPTIDE AND COMPOSITION COMPRISING SAME” (PeptiDream Inc., priority 2022, published 2026):
Numbered stars: 1 amine (or outer) side, 2 acyl side, 3 side chain; on linkers, the order of the positions; unused ones are H or OH. Bridge positions count the residues as written; N and C are the ends. Square brackets hold non-standard residues; d marks the D form. Side chains are listed from the residue outwards. Peptide text beside a SMILES is read from it. * marks the point of attachment. Trp(1-Me,7-Cl) = Cn1cc(C[C@H](N)C(=O)O)c2cccc(Cl)c21; Ala(2-NH2-4-pyridyl) = Nc1cc(C[C@H](N)C(=O)O)ccn1; dPhe(3-CONH2) = NC(=O)c1cccc(C[C@@H](N)C(=O)O)c1; Piperazinyl(4-CH2COOH) = O=C(O)CN1CCN(*)CC1; Trp(1-Me) = Cn1cc(C[C@H](N)C(=O)O)c2ccccc21; 3Pal(6-NH2) = Nc1ccc(C[C@H](N)C(=O)O)cn1; NMe3Pal = CN[C@@H](Cc1cccnc1)C(=O)O; NMeF = CN[C@@H](Cc1ccccc1)C(=O)O; hArg = N=C(N)NCCCC[C@H](N)C(=O)O; hCit = NC(=O)NCCCC[C@H](N)C(=O)O; 4Pal = N[C@@H](Cc1ccncc1)C(=O)O; Gly(cBu) = N[C@H](C(=O)O)C1CCC1; NMeE = CN[C@@H](CCC(=O)O)C(=O)O; Aad = N[C@@H](CCCC(=O)O)C(=O)O; NMeN = CN[C@@H](CC(N)=O)C(=O)O; dAhp(2) = CCCCC[C@@H](N)C(=O)O; Chg = N[C@H](C(=O)O)C1CCCCC1; CO = O=C([*:1])[*:2]; βAla = NCCC(=O)O

Target: T1, Recombinant Human EphA2 Fc Protein (Homo sapiens, UniProt P29317)
T1 construct: purchased Elabscience
Assay: SPR interaction analysis (Biacore T200), kinetics of peptides against EphA2
Type: binding
Details: Recombinant Human EphA2 Fc Protein captured by Human Antibody Capture kit; single-cycle kinetics; 25° C.; HBS-P+ buffer with 1% DMSO
In short: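 KD derived from ka and kd, fitted on baseline-subtracted sensorgrams from single-cycle kinetics of five peptide dilutions. Running buffer: HBS-P+ (pH 7.4) plus 1% DMSO, 25° C, Biacore T200. Recombinant human EphA2-Fc held on an antibody capture surface.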

| Kd | SMILES |
| --- | --- |
| < 1 nM | C[C@@H](O)[C@@H]1NC(=O)[C@H](Cc2cn(C)c3ccccc23)NC(=O)[C@H](CCCCNC(N)=O)NC(=O)[C@H](Cc2cn(C)c3c(Cl)cccc23)NC(=O)[C@H](CC(N)=O)N(C)C(=O)[C@H](CCCC(N)=O)NC(=O)[C@H](C2CCC2)NC(=O)[C@H](CC(N)=O)NC(=O)[C@H](Cc2cccnc2)N(C)C(=O)[C@@H](Cc2cccc(C(N)=O)c2)NC(=O)CSC[C@@H](C(N)=O)NC(=O)[C@H](CCCNC(=N)N)NC1=O [PDC_EphA2-00019428, df3CON-Me3Py-N-Cbg-Hgn-MeN-W1Me7Cl-Hcit-W1Me-T-R-C-NH2] ({CH2CO}-[dPhe(3-CONH2)][NMe3Pal]N[Gly(cBu)][Aad](NH2)[NMeN][Trp(1-Me,7-Cl)][hCit][Trp(1-Me)]TRC-NH2; thioether N-12) |
| < 1 nM | CNC(=O)C[C@@H]1NC(=O)[C@H](C2CCCCC2)NC(=O)[C@H](CC(N)=O)NC(=O)[C@H](Cc2cccnc2)N(C)C(=O)[C@@H](C)NC(=O)CSC[C@@H](C(N)=O)NC(=O)[C@H](CCCC(N)=O)NC(=O)[C@H]([C@@H](C)O)NC(=O)[C@H](Cc2cn(C)c3ccccc23)NC(=O)[C@H](CCCCNC(=O)N2CCN(CC(=O)O)CC2)NC(=O)[C@H](Cc2cn(C)c3ccccc23)NC(=O)[C@H](Cc2ccccc2)N(C)C1=O [PDC_EphA2-00018536, da-Me3Py-N-Chg-Nmm-MeF-W1Me-KCOpipzaa-W1Me-T-Hgn-C-NH2] ({CH2CO}-[dA][NMe3Pal]N[Chg]D(NHMe)[NMeF][Trp(1-Me)]K([CO-Piperazinyl(4-CH2COOH)])[Trp(1-Me)]T[Aad](NH2)C-NH2; thioether N-12) |
| 1 to 10 nM | CC(C)C[C@@H]1NC(=O)[C@H](CC(N)=O)NC(=O)[C@H](Cc2ccccc2)N(C)C(=O)[C@@H](C)NC(=O)CSC[C@@H](C(N)=O)NC(=O)[C@H](CCC(=O)O)NC(=O)[C@H]([C@@H](C)O)NC(=O)[C@H](Cc2cn(C)c3ccccc23)NC(=O)[C@H](C(C)C)NC(=O)[C@H](Cc2cn(C)c3ccccc23)NC(=O)[C@H](Cc2ccccc2)N(C)C(=O)[C@H](CCCC(=O)O)NC1=O [PDC_EphA2-00001417, da-MeF-N-L-Hgl-MeF-W1Me-V-W1Me-T-E-C-NH2] ({CH2CO}-[dA][NMeF]NL[Aad][NMeF][Trp(1-Me)]V[Trp(1-Me)]TEC-NH2; thioether N-12) |
| < 1 nM | C[C@H]1NC(=O)CSC[C@@H](C(N)=O)NC(=O)[C@H](CC(N)=O)NC(=O)[C@H]([C@@H](C)O)NC(=O)[C@H](Cc2cn(C)c3ccccc23)NC(=O)[C@H](CCCCNC(=O)N2CCN(CC(=O)O)CC2)NC(=O)[C@H](Cc2cn(C)c3ccccc23)NC(=O)[C@H](Cc2ccccc2)N(C)C(=O)[C@H](CCCC(N)=O)NC(=O)[C@H](C2CCC2)NC(=O)[C@H](CC(N)=O)NC(=O)[C@H](Cc2cccnc2)N(C)C1=O [PDC_EphA2-00010004, da-Me3Py-N-Cbg-Hgn-MeF-W1Me-KCOpipzaa-W1Me-T-N-C-NH2] ({CH2CO}-[dA][NMe3Pal]N[Gly(cBu)][Aad](NH2)[NMeF][Trp(1-Me)]K([CO-Piperazinyl(4-CH2COOH)])[Trp(1-Me)]TNC-NH2; thioether N-12) |
| 1 to 10 nM | CC(=O)NCCCC[C@@H](NC(=O)CCNC(=O)[C@@H]1CSCC(=O)N[C@@H](C)C(=O)N(C)[C@@H](Cc2cccnc2)C(=O)N[C@@H](CC(N)=O)C(=O)N[C@@H](CC(C)C)C(=O)N[C@@H](CCCC(=O)O)C(=O)N(C)[C@@H](Cc2ccccc2)C(=O)N[C@@H](Cc2cn(C)c3ccccc23)C(=O)N[C@@H](CCCCNC(=O)N2CCN(CC(=O)O)CC2)C(=O)N[C@@H](Cc2cn(C)c3ccccc23)C(=O)N[C@@H]([C@@H](C)O)C(=O)N[C@@H](CCC(=O)O)C(=O)N1)C(N)=O [PDC_EphA2-00008097, A-Me3Py-N-L-Hgl-MeF-W1Me-KCOpipzaa-W1Me-T-E-C-bA-dkAc-NH2] ({CH2CO}-A[NMe3Pal]NL[Aad][NMeF][Trp(1-Me)]K([CO-Piperazinyl(4-CH2COOH)])[Trp(1-Me)]TEC[βAla][dK](Ac)-NH2; thioether N-12) |
| < 1 nM | CC(=O)NCCCC[C@@H](NC(=O)CCNC(=O)[C@@H]1CSCC(=O)N[C@H](C)C(=O)N(C)[C@@H](Cc2cccnc2)C(=O)N[C@@H](CC(N)=O)C(=O)N[C@@H](CC(C)C)C(=O)N[C@@H](CCCC(=O)O)C(=O)N(C)[C@@H](Cc2ccccc2)C(=O)N[C@@H](Cc2cn(C)c3ccccc23)C(=O)N[C@@H](CCCCNC(=O)N2CCN(CC(=O)O)CC2)C(=O)N[C@@H](Cc2cn(C)c3ccccc23)C(=O)N[C@@H]([C@@H](C)O)C(=O)N[C@@H](CCCC(N)=O)C(=O)N1)C(N)=O [PDC_EphA2-00008091, da-Me3Py-N-L-Hgl-MeF-W1Me-KCOpipzaa-W1Me-T-Hgn-C-bA-dkAc-NH2] ({CH2CO}-[dA][NMe3Pal]NL[Aad][NMeF][Trp(1-Me)]K([CO-Piperazinyl(4-CH2COOH)])[Trp(1-Me)]T[Aad](NH2)C[βAla][dK](Ac)-NH2; thioether N-12) |
| < 1 nM | CC(=O)NCCCC[C@@H](NC(=O)CCNC(=O)[C@@H]1CSCC(=O)N[C@H](C)C(=O)N(C)[C@@H](Cc2cccnc2)C(=O)N[C@@H](CC(N)=O)C(=O)N[C@@H](CC(C)C)C(=O)N[C@@H](CCCC(N)=O)C(=O)N(C)[C@@H](CCC(=O)O)C(=O)N[C@@H](Cc2cn(C)c3ccccc23)C(=O)N[C@@H](CCCCNC(=O)N2CCN(CC(=O)O)CC2)C(=O)N[C@@H](Cc2cn(C)c3ccccc23)C(=O)N[C@@H]([C@@H](C)O)C(=O)N[C@@H](CCCC(N)=O)C(=O)N1)C(N)=O [PDC_EphA2-00007196, da-Me3Py-N-L-Hgn-MeE-W1Me-KCOpipzaa-W1Me-T-Hgn-C-bA-dkAc-NH2] ({CH2CO}-[dA][NMe3Pal]NL[Aad](NH2)[NMeE][Trp(1-Me)]K([CO-Piperazinyl(4-CH2COOH)])[Trp(1-Me)]T[Aad](NH2)C[βAla][dK](Ac)-NH2; thioether N-12) |
| < 1 nM | CCCCC[C@H]1NC(=O)CSC[C@@H](C(N)=O)NC(=O)[C@H](CCCC(N)=O)NC(=O)[C@H]([C@@H](C)O)NC(=O)[C@H](Cc2cn(C)c3ccccc23)NC(=O)[C@H](CCCCNC(=O)N2CCN(CC(=O)O)CC2)NC(=O)[C@H](Cc2cn(C)c3ccccc23)NC(=O)[C@H](Cc2ccccc2)N(C)C(=O)[C@H](CCCC(=O)O)NC(=O)[C@H](CC(C)C)NC(=O)[C@H](CC(N)=O)NC(=O)[C@H](Cc2cccnc2)N(C)C1=O [PDC_EphA2-00018526, dahp-Me3Py-N-L-Hgl-MeF-W1Me-KCOpipzaa-W1Me-T-Hgn-C-NH2] ({CH2CO}-[dAhp(2)][NMe3Pal]NL[Aad][NMeF][Trp(1-Me)]K([CO-Piperazinyl(4-CH2COOH)])[Trp(1-Me)]T[Aad](NH2)C-NH2; thioether N-12) |
| < 1 nM | C[C@@H](O)[C@@H]1NC(=O)[C@H](Cc2cn(C)c3ccccc23)NC(=O)[C@H](CCCCNC(=O)N2CCN(CC(=O)O)CC2)NC(=O)[C@H](Cc2cn(C)c3c(Cl)cccc23)NC(=O)[C@H](CC(N)=O)N(C)C(=O)[C@H](CCCC(N)=O)NC(=O)[C@H](C2CCC2)NC(=O)[C@H](CC(N)=O)NC(=O)[C@H](Cc2cccnc2)N(C)C(=O)[C@@H](Cc2cccc(C(N)=O)c2)NC(=O)CSC[C@@H](C(N)=O)NC(=O)[C@H](CCCCNC(=N)N)NC1=O [PDC_EphA2-00019430, df3CON-Me3Py-N-Cbg-Hgn-MeN-W1Me7Cl-KCOpipzaa-W1Me-T-Har-C-NH2] ({CH2CO}-[dPhe(3-CONH2)][NMe3Pal]N[Gly(cBu)][Aad](NH2)[NMeN][Trp(1-Me,7-Cl)]K([CO-Piperazinyl(4-CH2COOH)])[Trp(1-Me)]T[hArg]C-NH2; thioether N-12) |
| 100 to 400 nM | CC(=O)NCCCC[C@H](NC(=O)[C@@H]1CSCC(=O)N[C@@H](Cc2ccccc2)C(=O)N[C@@H](Cc2ccnc(N)c2)C(=O)N[C@@H](CC(C)C)C(=O)N[C@@H](CCCCNC(N)=O)C(=O)N[C@@H](Cc2cn(C)c3ccccc23)C(=O)N(C)[C@@H](Cc2ccccc2)C(=O)N[C@@H](Cc2cn(C)c3ccccc23)C(=O)N1)C(N)=O [PDC_EphA2-00022602, F-4Py2NH2-L-Hcit-W1Me-MeF-W1Me-C-KAc-NH2] ({CH2CO}-F[Ala(2-NH2-4-pyridyl)]L[hCit][Trp(1-Me)][NMeF][Trp(1-Me)]CK(Ac)-NH2; thioether N-8) |
| < 1 nM | CC(=O)NCCCC[C@@H](NC(=O)CCNC(=O)[C@@H]1CSCC(=O)N[C@H](C)C(=O)N(C)[C@@H](Cc2cccnc2)C(=O)N[C@@H](CC(N)=O)C(=O)N[C@@H](CC(C)C)C(=O)N[C@@H](CCCC(N)=O)C(=O)N(C)[C@@H](Cc2ccccc2)C(=O)N[C@@H](Cc2cn(C)c3ccccc23)C(=O)N[C@@H](CCCCNC(=O)N2CCN(CC(=O)O)CC2)C(=O)N[C@@H](Cc2cn(C)c3ccccc23)C(=O)N[C@@H]([C@@H](C)O)C(=O)N[C@@H](CCCC(N)=O)C(=O)N1)C(N)=O [PDC_EphA2-00008093, da-Me3Py-N-L-Hgn-MeF-W1Me-KCOpipzaa-W1Me-T-Hgn-C-bA-dkAc-NH2] ({CH2CO}-[dA][NMe3Pal]NL[Aad](NH2)[NMeF][Trp(1-Me)]K([CO-Piperazinyl(4-CH2COOH)])[Trp(1-Me)]T[Aad](NH2)C[βAla][dK](Ac)-NH2; thioether N-12) |
| < 1 nM | CC(C)C[C@@H]1NC(=O)[C@H](CC(N)=O)NC(=O)[C@H](Cc2cccnc2)N(C)C(=O)[C@@H](C)NC(=O)CSC[C@@H](C(N)=O)NC(=O)[C@H](CC(=O)N(C)C)NC(=O)[C@H]([C@@H](C)O)NC(=O)[C@H](Cc2cn(C)c3ccccc23)NC(=O)[C@H](CCCCNC(=O)N2CCN(CC(=O)O)CC2)NC(=O)[C@H](Cc2cn(C)c3ccccc23)NC(=O)[C@H](Cc2ccccc2)N(C)C(=O)[C@H](CCCC(=O)O)NC1=O [PDC_EphA2-00018529, da-Me3Py-N-L-Hgl-MeF-W1Me-KCOpipzaa-W1Me-T-Ndm-C-NH2] ({CH2CO}-[dA][NMe3Pal]NL[Aad][NMeF][Trp(1-Me)]K([CO-Piperazinyl(4-CH2COOH)])[Trp(1-Me)]TD(NMe2)C-NH2; thioether N-12) |
| 10 to 100 nM | CC(C)C[C@@H]1NC(=O)[C@H](CC(N)=O)NC(=O)[C@H](Cc2ccncc2)NC(=O)[C@H](Cc2ccccc2)NC(=O)CSC[C@@H](C(=O)NCC(N)=O)NC(=O)[C@H](Cc2cn(C)c3ccccc23)NC(=O)[C@H](Cc2ccc(N)nc2)NC(=O)[C@H](Cc2cn(C)c3ccccc23)NC(=O)[C@H](Cc2ccccc2)N(C)C(=O)[C@H](CCC(=O)O)NC1=O [PDC_EphA2-00022057-L092, F-4Py-N-L-E-MeF-W1Me-3Py6NH2-W1Me-C-G-NH2] ({CH2CO}-F[4Pal]NLE[NMeF][Trp(1-Me)][3Pal(6-NH2)][Trp(1-Me)]CG-NH2; thioether N-10) |
